From ChEMBL document CHEMBL3877319, “Synthesis of Ofornine mimics from natural product l-vasicine as anti-hypertensive agents” (Bioorg Med Chem, 2017)

What was measured:
Mus musculus [1] = test: Acute toxicity in Swiss mouse assessed as mortality up to 2000 mg/kg, po measured up to 13 days post dose; type: organism-based; conditions: in vivo, 312 h
Mus musculus [2] = test: Acute toxicity in Swiss mouse assessed as total protein level in serum up to 2000 mg/kg, po measured on day 14 post dose (reference value: 4.844 +/- 0.222 g/dl); type: organism-based; conditions: in vivo
Mus musculus [3] = test: Acute toxicity in Swiss mouse assessed as ALT level in serum up to 2000 mg/kg, po measured on day 14 post dose (reference value: 49.87 +/- 3.277 IU/L); type: organism-based; conditions: in vivo
Rattus norvegicus [4] = test: Anti-hypertensive activity in Wistar rat assessed as systolic blood pressure at 10 mg/kg, iv after 5 mins (reference value: 110 to 124.6 mmHg); type: functional
Mus musculus [5] = test: Acute toxicity in Swiss mouse assessed as change in body weight up to 2000 mg/kg, po measured once in a week up to 13 days post dose; type: organism-based; conditions: in vivo, 312 h
Mus musculus [6] = test: Acute toxicity in Swiss mouse assessed as eosinophil level up to 2000 mg/kg, po measured on day 14 post dose (reference value: 2.233%); type: organism-based; conditions: in vivo
Rattus norvegicus [7] = test: Anti-hypertensive activity in iv dosed Wistar rat assessed as decrease in blood pressure up to 180 mins; type: functional, organism-based
Rattus norvegicus [8] = test: Anti-hypertensive activity in Wistar rat assessed as diastolic blood pressure at 10 mg/kg, iv after 15 mins (reference value: 77.15 to 94.4 mmHg); type: functional
Mus musculus [9] = test: Acute toxicity in Swiss mouse assessed as WBC count up to 2000 mg/kg, po measured on day 14 post dose (reference value: 8.35 +/- 4.53 10^3/microL); type: organism-based; conditions: in vivo
Mus musculus [10] = test: Acute toxicity in Swiss mouse assessed as cholesterol level in serum up to 2000 mg/kg, po measured on day 14 post dose (reference value: […]); type: organism-based; conditions: in vivo
Mus musculus [11] = test: Acute toxicity in Swiss mouse assessed as mean corpuscular hemoglobin up to 2000 mg/kg, po measured on day 14 post dose (reference value: 13.78 +/- 5.29 pg); type: organism-based; conditions: in vivo
Mus musculus [12] = test: Acute toxicity in Swiss mouse assessed as uric acid level in serum up to 2000 mg/kg, po measured on day 14 post dose (reference value: […]); type: organism-based; conditions: in vivo
Mus musculus [13] = test: Acute toxicity in Swiss mouse assessed as platelet level up to 2000 mg/kg, po measured on day 14 post dose (reference value: 1542.71 +/- 474.34 10^3/microL); type: organism-based; conditions: in vivo
Rattus norvegicus [14] = test: Anti-hypertensive activity in Wistar rat assessed as systolic blood pressure at 10 mg/kg, iv after 180 mins (reference value: 110 to 124.6 mmHg); type: functional
Mus musculus [15] = test: Acute toxicity in Swiss mouse assessed as hemoglobin level up to 2000 mg/kg, po measured on day 14 post dose (reference value: 12.342 +/- 4.42 g/dl); type: organism-based; conditions: in vivo
Mus musculus [16] = test: Acute toxicity in Swiss mouse assessed as serum urea level up to 2000 mg/kg, po measured on day 14 post dose (reference value: 55.157 +/- 2.769 mg/dl); type: organism-based; conditions: in vivo
Rattus norvegicus [17] = test: Anti-hypertensive activity in Wistar rat assessed as systolic blood pressure at 10 mg/kg, iv after 30 mins (reference value: 110 to 124.6 mmHg); type: functional
Rattus norvegicus [18] = test: Anti-hypertensive activity in Wistar rat assessed as diastolic blood pressure at 10 mg/kg, iv after 180 mins (reference value: 77.15 to 94.4 mmHg); type: functional
Mus musculus [19] = test: Acute toxicity in Swiss mouse assessed as AST level in serum up to 2000 mg/kg, po measured on day 14 post dose (reference value: 162.53 +/- 5.455 IU/L); type: organism-based; conditions: in vivo
Mus musculus [20] = test: Acute toxicity in Swiss mouse assessed as serum glucose level up to 2000 mg/kg, po measured on day 14 post dose (reference value: 105.78 +/- 5.217 mg/dl); type: organism-based; conditions: in vivo
Rattus norvegicus [21] = test: Anti-hypertensive activity in Wistar rat assessed as diastolic blood pressure at 10 mg/kg, iv after 150 mins (reference value: 77.15 to 94.4 mmHg); type: functional
Rattus norvegicus [22] = test: Anti-hypertensive activity in Wistar rat assessed as diastolic blood pressure at 10 mg/kg, iv after 120 mins (reference value: 77.15 to 94.4 mmHg); type: functional
Mus musculus [23] = test: Acute toxicity in Swiss mouse assessed as effect on water consumption up to 2000 mg/kg, po measured up to 13 days post dose; type: organism-based; conditions: in vivo, 312 h
Rattus norvegicus [24] = test: Anti-hypertensive activity in Wistar rat assessed as systolic blood pressure at 10 mg/kg, iv after 150 mins (reference value: 110 to 124.6 mmHg); type: functional
Mus musculus [25] = test: Acute toxicity in Swiss mouse assessed as change in general appearance up to 2000 mg/kg, po measured up to 13 days post dose; type: organism-based; conditions: in vivo, 312 h
Rattus norvegicus [26] = test: Anti-hypertensive activity in Wistar rat assessed as systolic blood pressure at 10 mg/kg, iv after 60 mins (reference value: 110 to 124.6 mmHg); type: functional
Rattus norvegicus [27] = test: Anti-hypertensive activity in Wistar rat assessed as diastolic blood pressure at 10 mg/kg, iv after 30 mins (reference value: 77.15 to 94.4 mmHg); type: functional
Mus musculus [28] = test: Acute toxicity in Swiss mouse assessed as lymphocytes level up to 2000 mg/kg, po measured on day 14 post dose (reference value: 79.433%); type: organism-based; conditions: in vivo
Mus musculus [29] = test: Acute toxicity in Swiss mouse assessed as effect on feed up to 2000 mg/kg, po measured up to 13 days post dose; type: organism-based; conditions: in vivo, 312 h
Rattus norvegicus [30] = test: Anti-hypertensive activity in Wistar rat assessed as systolic blood pressure at 10 mg/kg, iv after 15 mins (reference value: 110 to 124.6 mmHg); type: functional
Mus musculus [31] = test: Acute toxicity in Swiss mouse assessed as RBC count up to 2000 mg/kg, po measured on day 14 post dose (reference value: 8.97 +/- 3.15 10^6/microL); type: organism-based; conditions: in vivo
Mus musculus [32] = test: Acute toxicity in Swiss mouse assessed as serum creatinine level up to 2000 mg/kg, po measured on day 14 post dose (reference value: 0.418 +/- 0.0259 mg/dl); type: organism-based; conditions: in vivo
Mus musculus [33] = test: Acute toxicity in Swiss mouse assessed as monocytes level up to 2000 mg/kg, po measured on day 14 post dose (reference value: 3.66%); type: organism-based; conditions: in vivo
Mus musculus [34] = test: Acute toxicity in Swiss mouse assessed as basophil level up to 2000 mg/kg, po measured on day 14 post dose (reference value: 0.1%); type: organism-based; conditions: in vivo
Rattus norvegicus [35] = test: Anti-hypertensive activity in Wistar rat assessed as diastolic blood pressure at 10 mg/kg, iv after 60 mins (reference value: 77.15 to 94.4 mmHg); type: functional
Rattus norvegicus [36] = test: Anti-hypertensive activity in Wistar rat assessed as systolic blood pressure at 10 mg/kg, iv after 120 mins (reference value: 110 to 124.6 mmHg); type: functional
Mus musculus [37] = test: Acute toxicity in Swiss mouse assessed as mean corpuscular volume up to 2000 mg/kg, po measured on day 14 post dose (reference value: 44.85 +/- 17.65 fL); type: organism-based; conditions: in vivo
Rattus norvegicus [38] = test: Anti-hypertensive activity in Wistar rat assessed as diastolic blood pressure at 10 mg/kg, iv after 5 mins (reference value: 77.15 to 94.4 mmHg); type: functional
Mus musculus [39] = test: Acute toxicity in Swiss mouse assessed as serum triglyceride level up to 2000 mg/kg, po measured on day 14 post dose (reference value: […]); type: organism-based; conditions: in vivo
Mus musculus [40] = test: Acute toxicity in Swiss mouse assessed as neutrophil level up to 2000 mg/kg, po measured on day 14 post dose (reference value: 14.56%); type: organism-based; conditions: in vivo
Mus musculus [41] = test: Acute toxicity in Swiss mouse assessed as hematocrit up to 2000 mg/kg, po measured on day 14 post dose (reference value: 40.114 +/- 14.74%); type: organism-based; conditions: in vivo

Compound: O=C(c1ccccc1Nc1ccncc1)N1CC[C@H](O)C1
- Activity (Mus musculus [1]): Non-Toxic
- Activity (Mus musculus [2]): 5.224 g/dL
- Activity (Mus musculus [3]): 50.587 IU/L
- Activity (Rattus norvegicus [4]): 88 mmHg
- Activity (Mus musculus [5]): Non-Toxic
- Activity (Mus musculus [6]): 3.457%
- Activity (Rattus norvegicus [7]): Dose-dependent effect
- Activity (Rattus norvegicus [8]): 64.33 mmHg
- Activity (Mus musculus [9]): 10.185 ×10³ /uL
- Activity (Mus musculus [10]): 83 mg/dL
- Activity (Mus musculus [11]): 13.77 pg
- Activity (Mus musculus [12]): 2.81 mg/dL
- Activity (Mus musculus [13]): 1458.42 ×10³ /uL
- Activity (Rattus norvegicus [14]): 108.8 mmHg
- Activity (Mus musculus [15]): 13.342 g/dL
- Activity (Mus musculus [16]): 54.885 mg/dL
- Activity (Rattus norvegicus [17]): 80.19 mmHg
- Activity (Rattus norvegicus [18]): 79.06 mmHg
- Activity (Mus musculus [19]): 145.84 IU/L
- Activity (Mus musculus [20]): 111.51 mg/dL
- Activity (Rattus norvegicus [21]): 73 mmHg
- Activity (Rattus norvegicus [22]): 69.81 mmHg
- Activity (Mus musculus [23]): Non-Toxic
- Activity (Rattus norvegicus [24]): 87.13 mmHg
- Activity (Mus musculus [25]): Non-Toxic
- Activity (Rattus norvegicus [26]): 79.29 mmHg
- Activity (Rattus norvegicus [27]): 62.55 mmHg
- Activity (Mus musculus [28]): 84.514%
- Activity (Mus musculus [29]): Non-Toxic
- Activity (Rattus norvegicus [30]): 82.41 mmHg
- Activity (Mus musculus [31]): 9.684 ×10⁶ /uL
- Activity (Mus musculus [32]): 0.435 mg/dL
- Activity (Mus musculus [33]): 3.128%
- Activity (Mus musculus [34]): 0.0714%
- Activity (Rattus norvegicus [35]): 64.09 mmHg
- Activity (Rattus norvegicus [36]): 85.46 mmHg
- Activity (Mus musculus [37]): 41.3 fL
- Activity (Rattus norvegicus [38]): 66.01 mmHg
- Activity (Mus musculus [39]): 89.6 mg/dL
- Activity (Mus musculus [40]): 8.828%
- Activity (Mus musculus [41]): 40.1%
